Experiment: Non-dairy cream filling evaluation (Example 16)
Settings: 0.01% (w/w) in liquid preparation
Protocol: Polysorbate 60 has been replaced by rhamnolipids in non-dairy cream filling for pastries.
The following preparation process was used: The starch is mixed with the water, sugar and glucose syrup are added together with the emulsifier and titanium dioxide. After mixing until homogenous all the other ingredients are added and mixed again. The total mixture is heated until jellification of the starch.
Bake stability (180° C., 30 minutes), color, taste, speed of incorporation of fat into the mixture and possible separation of fat during conservation are evaluated (Table 16).

Stability during conservation: Stable during
Substance: Polysorbate 60

Source: patent US20060233935A1, “Rhamnolipids in bakery products” (priority 2002, published 2006)
